A word on the inhibition: it is how much of the control response was suppressed. A low value points to a response near the control.

The target of one experiment is EGFR (Hamster) (UniProt P00533). As to conditions: er22, dose or concentration not given here.
The target in the next experiment is EGFR (UniProt P00533). As to conditions: concentration not given here.
Chain of EGFR (P00533 whole entry, looked up): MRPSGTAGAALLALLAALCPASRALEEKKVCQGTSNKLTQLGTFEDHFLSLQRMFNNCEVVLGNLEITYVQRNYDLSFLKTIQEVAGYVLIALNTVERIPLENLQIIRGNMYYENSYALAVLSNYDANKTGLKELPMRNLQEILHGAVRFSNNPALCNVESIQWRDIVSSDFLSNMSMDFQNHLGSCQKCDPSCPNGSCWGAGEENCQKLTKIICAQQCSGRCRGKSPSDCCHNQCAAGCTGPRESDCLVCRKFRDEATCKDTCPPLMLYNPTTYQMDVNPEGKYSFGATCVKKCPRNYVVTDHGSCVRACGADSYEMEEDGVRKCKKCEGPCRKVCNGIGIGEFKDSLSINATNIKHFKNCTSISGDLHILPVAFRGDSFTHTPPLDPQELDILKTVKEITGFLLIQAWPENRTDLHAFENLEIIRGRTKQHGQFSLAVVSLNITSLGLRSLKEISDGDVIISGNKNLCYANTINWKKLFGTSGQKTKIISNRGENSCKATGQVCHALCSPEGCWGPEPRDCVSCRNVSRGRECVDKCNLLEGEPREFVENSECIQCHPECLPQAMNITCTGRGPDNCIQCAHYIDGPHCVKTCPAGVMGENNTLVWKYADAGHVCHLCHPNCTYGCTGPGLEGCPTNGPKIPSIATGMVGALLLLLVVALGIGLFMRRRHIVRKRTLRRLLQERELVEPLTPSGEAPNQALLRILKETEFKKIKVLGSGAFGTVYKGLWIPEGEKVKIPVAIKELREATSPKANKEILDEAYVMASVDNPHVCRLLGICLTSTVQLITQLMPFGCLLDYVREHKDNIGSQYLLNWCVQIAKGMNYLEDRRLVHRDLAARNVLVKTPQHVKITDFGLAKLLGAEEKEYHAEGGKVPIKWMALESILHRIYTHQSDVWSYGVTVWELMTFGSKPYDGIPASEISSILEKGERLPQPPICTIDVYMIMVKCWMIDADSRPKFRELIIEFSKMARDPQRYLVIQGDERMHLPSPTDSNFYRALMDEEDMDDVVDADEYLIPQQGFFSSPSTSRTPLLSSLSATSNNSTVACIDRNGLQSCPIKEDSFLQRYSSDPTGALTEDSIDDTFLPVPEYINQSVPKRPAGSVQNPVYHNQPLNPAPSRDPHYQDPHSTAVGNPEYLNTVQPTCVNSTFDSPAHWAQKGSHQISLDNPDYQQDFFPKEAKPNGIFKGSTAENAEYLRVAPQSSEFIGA

Chain of EGFR (Hamster) (P00533 whole entry, looked up): as above

`COC(=O)c1ccc(-c2ccc(C(C)(C)C)cc2O)cc1`: in the experiment with EGFR (Hamster), the inhibition was 0%.

As for `COCOc1cc(-c2ccccc2)ccc1-c1ccc(C(=O)OCC(C)CC(C)(C)C)cc1` (centres undefined), the inhibition against EGFR was 0%.

Regarding `COCOc1cc(-c2ccccc2)ccc1-c1ccc(C(=O)NCc2ccccc2)cc1`, the inhibition against EGFR was 0%.

`COC(=O)c1ccc(-c2cc(O)cc(C(C)(C)C)c2)cc1` returned an inhibition in the experiment with EGFR (Hamster) of 0%.

As for `O=C(NCc1ccccc1)c1ccc(-c2ccc(-c3ccccc3)cc2O)cc1`, the inhibition on EGFR was determined as 0%.

`CC(C)(C)c1cc(O)cc(-c2ccc(CO)cc2)c1` displayed an inhibition on EGFR of 0%.

As to `COCOc1cc(C(C)(C)C)ccc1-c1ccc(C(=O)OC)cc1`, the inhibition on EGFR turned out to be 0%.

In turn, `COCOc1cc(C(C)(C)C)ccc1-c1ccc(C(=O)NCc2ccccc2)cc1` returned an inhibition on EGFR of 0%.

For `O=C(NCc1ccccc1)c1ccc(-c2cccc(-c3ccccc3)c2O)cc1`, the inhibition in the experiment with EGFR (Hamster) and at EGFR was 0% in each case.

On to `CC(C)(C)c1ccc(-c2ccc(C(=O)O)cc2)c(O)c1`, for which the inhibition in the experiment with EGFR (Hamster) and on EGFR was 0% throughout.

For the compound `COC(=O)c1ccc(-c2ccc(-c3ccccc3)cc2O)cc1`, at EGFR, the inhibition was 14%.

Turning to `CC(C)(C)c1cc(O)cc(-c2ccc(C(=O)NCc3ccccc3)cc2)c1`, at EGFR, the inhibition came out at 0%.
